Values of other authors in publication PMC5721631 (BMJ Open Ophthalmology, 2017).

Tested on: adrenal cortisol biosynthesis (CYP11B1)
Conditions: single oral administration

For CC(C)(C(=O)c1cccnc1)c1cccnc1 [Metpyrapone, metyrapone], the “plasma cortisol reduction from baseline” value is given as “Up to about 80% plasma cortisol reduction from baseline”.
